{
  "source": "patent US12629406B2",
  "about": "“Alterations in endothelin receptors following hemorrhage and resuscitation by centhaquin” (MIDWESTERN UNIVERSITY, priority 2018, dated 2026)",
  "key": {"[1]": {"conditions": "cited from earlier work"}, "IL-10": {"test_system": "IL-10", "assay": "Plasma IL-10 in hemorrhaged rats (ELISA)", "conditions": "rat, in vivo", "procedure": "(§1) Induction of Hemorrhagic Shock. Hemorrhage was induced by withdrawing blood from the femoral artery at a rate of approximately 0.5 to 1 mL/min until a MAP of 35 mmHg was reached. This MAP was maintained for 30 min by further withdrawal of blood, if necessary. The hemorrhagic shock model used in the present study is a well-established rodent model of manageable pressure hemorrhage (Buehler et al. 2000; Gulati et al. 1997a; Gulati and Sen 1998). The volume of blood loss was about approximately 8.0 ml in each rat and was similar in various groups, amounting to approximately 40% of the total blood. Measured hematocrit levels were similar in various groups. The duration of blood withdrawal was approximately 15 minutes.\nExperimental design. […] The blood samples, for biochemical estimations, were collected at 30 minutes of resuscitation and cardiovascular parameters were monitored till 60 minutes after which the animal was sacrificed. […]"}, "[2]": {"test_system": "isolated, perfused rabbit heart", "conditions": "cited from earlier work"}, "ETA receptors": {"test_system": "ETA receptors", "assay": "ETA receptor expression in tissues of hemorrhaged rats (western blot)", "type": "in vivo, rat", "conditions": "for change in ETA receptor expression, abdominal aorta: compared to hemorrhaged rats with no treatment; for change in ETA receptor expression, renal medulla: compared to hemorrhagic shock", "procedure": "as §1\nExperimental design. To determine the resuscitative effect of centhaquin on cardiovascular system and plasma cytokines in hemorrhagic shock, rats were randomly divided into five groups, Group 1: Sham control (Non-hemorrhaged) (n=5), Group 2: Hemorrhage with no resuscitation (n=5); Group 3: Hemorrhage followed by resuscitation with 3% hypertonic saline (vehicle) (n=5); Group 4: Hemorrhage followed by resuscitation with vehicle plus centhaquin (0.017 mg/kg) (n=5); and Group 5: Hemorrhage followed by resuscitation with vehicle plus centhaquin (0.05 mg/kg) (n=5). Resuscitation was started 30 min after induction of hemorrhagic shock as an intravenous infusion (1 mL/min) through femoral vein using an infusion pump (Harvard Apparatus Infusion/Withdrawal Pump, Millis, MA). The blood samples, for biochemical estimations, were collected at 30 minutes of resuscitation and cardiovascular parameters were monitored till 60 minutes after which the animal was sacrificed. The volume of resuscitative solution was kept equal to the volume of blood loss.\nEstimation of ETA and ETB receptor expression. Expression of ETA and ETB receptors was determined using the western blotting technique (Briyal et al. 2015; Leonard and Gulati 2013) with some modifications. After completion of cardiovascular experiments animals were sacrificed and the organs (brain, heart, liver, lung, kidney and abdominal aorta) were immediately dissected out, flash frozen on dry ice, and stored at −80° C. for further analysis. The tissue was homogenized with 10×(w/v) RIPA lysis buffer (20 mM Tris-HCl pH 7.5, 120 mM NaCl, 1.0% TritonX-100, 1.0% sodium deoxycholate, 0.1% sodium dodecyl sulfate (SDS), 10% glycerol, 1 mM disodium ethylene diamine tetraacetic acid (EDTA), 1 mM ethylene glycol-bis(β-aminoethyl ether)-N,N,N′,N′-tetraacetic acid tetrasodium salt (EGTA), phosphatase inhibitors and Complete Mini Protease inhibitor cocktail tablet (Roche Diagnostics, Indianapolis, IN). Proteins were isolated in solubilized form and concentrations were measured by Folin-Ciocalteu's phenol reagent (Lowry et al. 1951). Solubilized protein (60 μg) was denatured in Laemmli sample buffer (Bio-Rad Laboratories, Hercules, CA), resolved on 10% sodium dodecyl sulfate-polyacrylamide gel electrophoresis (SDS-PAGE) and then transferred onto the nitrocellulose membrane followed by blocking the membrane with SuperBlock® Blocking Buffer in tris-buffered saline (TBS) (ThermoFisher Scientific, Hanover Park, IL). The membranes were washed three times with 1×TBS-Tween (TBST) and incubated with rabbit polyclonal anti-ETA receptor (ab85163, Abcam, Cambridge, MA, 1:1000) or anti-ETB receptor (ab117529, Abcam, Cambridge, MA, 1:1000) or mouse monoclonal anti-β-actin (a1978, Sigma-Aldrich, St. Louis, MO) antibodies, followed by horseradish peroxidase (HRP)-conjugated secondary antibodies goat anti-rabbit (sc2004, Santa Cruz Biotechnology, Dallas, TX, 1:2000) or goat anti-mouse (ab98693, Abcam, Cambridge, MA, 1:10,000) and visualized by SuperSignal® West Pico Chemiluminescent Substrate (ThermoFisher Scientific, Hanover Park, IL) using the ChemiDoc™ MP Imaging System (Bio-Rad Laboratories, Hercules, CA) and then analyzed using ImageJ (NIH) software."}, "[3]": {"conditions": "rat fixed pressure blood loss, rabbit uncontrolled bleeding with trauma, pig massive blood loss; cited from earlier work"}},
  "data": [
    {"smiles": "Cc1cccc(N2CCN(CCc3ccc4ccccc4n3)CC2)c1", "note": "[centhaquin, 2-[2-(4-(3-methyphenyl)-1-piperazinyl)]ethyl-quinoline]", "values": [
      {"measurement": "survival of hemorrhaged rats", "setting": "[1]; administered in one-fifth the volume of blood loss", "value": "improved the survival"},
      {"measurement": "blood lactate", "setting": "[1]; rat model of hemorrhagic shock", "value": "decreased blood lactate"},
      {"measurement": "cardiac output (CO)", "setting": "[1]; rat model of hemorrhagic shock", "value": "significantly improved CO"},
      {"measurement": "survival", "setting": "[1]; rat model of hemorrhagic shock", "value": "improved survival"},
      {"measurement": "plasma IL-10, hemorrhagic shock versus resuscitation with hypertonic saline or centhaquin", "setting": "IL-10", "value": "no statistically significant difference"},
      {"measurement": "inotropic effect, ventricular contractions", "setting": "[2]", "value": "positive inotropic effect"},
      {"measurement": "change in ETA receptor expression, abdominal aorta", "setting": "ETA receptors; centhaquin 0.017 mg/kg", "value": "−47.6", "unit": "%"},
      {"measurement": "change in ETA receptor expression, renal medulla", "setting": "ETA receptors; centhaquin 0.017 mg/kg", "value": "−61.3", "unit": "%"},
      {"measurement": "change in ETA receptor expression, abdominal aorta", "setting": "ETA receptors; centhaquin 0.05 mg/kg", "value": "−49.2", "unit": "%"},
      {"measurement": "change in ETA receptor expression, renal medulla", "setting": "ETA receptors; centhaquin 0.05 mg/kg", "value": "−70.5", "unit": "%"},
      {"measurement": "change in ETA expression, renal medulla (summary)", "setting": "ETA receptors; dose not given", "value": "−61", "unit": "%"},
      {"measurement": "ETA receptor expression in brain, heart, liver, lungs and kidney cortex", "setting": "ETA receptors; hemorrhage and resuscitation", "value": "no change"},
      {"measurement": "shock-induced increase (140%) in ETA expression, abdominal aorta", "setting": "ETA receptors; summary, also attenuated by saline", "value": "attenuated"},
      {"measurement": "mortality following hypovolemic shock", "setting": "[3]", "value": "highly effective in reducing the mortality"}
    ]}
  ]
}
